From patent US6358885B1, “Substituted phenylheterocyclic herbicides” (Mississippi State University, priority 1992, dated 2002)

What was measured:
corn = experiment: Test B preemergence/postemergence greenhouse plant response rating 0 to 10; assay type: in vivo, Zea mays; conditions: for Plant response rating, Corn: 0 to 10 scale
In short: (§1)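 Postemergence treatment of plants two to eighteen cm tall ran alongside preemergence treatment of planted seed, each using compound in a non-phytotoxic solvent.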

broadleaf signalgrass = experiment: Test G preemergence/postemergence greenhouse plant response rating 0 to 100; assay type: in vivo, Brachiaria plantaginea; conditions: 0 to 100 scale
In short: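 Greenhouse pots, one species each; non-phytotoxic solvent vehicle. Read-out: visual injury vs untreated, 13–21 DAT. Dash denotes no result.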

lambsquarters = experiment: Test C preemergence/postemergence greenhouse plant response rating 0 to 100; assay type: in vivo, Chenopodium album; conditions: POSTEMERGENCE; for Plant response rating Lambsquarters: 0 to 100 scale
In short: (§2)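 Compounds in non-phytotoxic solvent went onto sandy loam before emergence (seeded one day earlier) or onto plants at the one-to-four leaf stage. Duck salad was treated via flood water (~2.5 cm, maintained) over silt loam.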

rape = experiment: Test B preemergence/postemergence greenhouse plant response rating 0 to 10; assay type: in vivo, Brassica napus; conditions: 0 to 10 scale
In short: as §1

crabgrass = experiment: as above; assay type: in vivo, Digitaria spp.; conditions: for Plant response rating, Crabgrass: 0 to 10 scale
In short: as §1

morningglory [1] = experiment: Test C preemergence/postemergence greenhouse plant response rating 0 to 100; assay type: in vivo, Ipomoea hederacea; conditions: POSTEMERGENCE; for Plant response rating, Morningglory: 0 to 100 scale
In short: as §2

soybean = experiment: as above; assay type: in vivo, Glycine max; conditions: POSTEMERGENCE; for Plant response rating, Soybean: 0 to 100 scale
In short: as §2

barnyardgrass = experiment: Test B preemergence/postemergence greenhouse plant response rating 0 to 10; assay type: in vivo, Echinochloa crus-galli; conditions: for Plant response rating, Barnyardgrass: 0 to 10 scale
In short: as §1

cheatgrass = experiment: as above; assay type: in vivo, Bromus secalinus; conditions: for Plant response rating, Cheatgrass: 0 to 10 scale
In short: as §1

chickweed = experiment: as above; assay type: in vivo, Stellaria media; conditions: for Plant response rating, Chickweed: 0 to 10 scale
In short: as §1

barley = experiment: Test C preemergence/postemergence greenhouse plant response rating 0 to 100; assay type: in vivo, Hordeum vulgare; conditions: POSTEMERGENCE; for Plant response rating Barley Igri: 0 to 100 scale
In short: as §2

velvetleaf = experiment: Test B preemergence/postemergence greenhouse plant response rating 0 to 10; assay type: in vivo, Abutilon theophrasti; conditions: 0 to 10 scale
In short: as §1

giant foxtail = experiment: as above; assay type: in vivo, Setaria faberii; conditions: 0 to 10 scale
In short: as §1

morningglory [2] = experiment: as above; assay type: in vivo, Ipomoea hederacea; conditions: 0 to 10 scale
In short: as §1

SMILES: COc1cc(-c2nn3c(c2Cl)CCCC3)c(F)cc1Cl [Compound 29]
- Plant response rating (0 to 10 scale), Corn (corn; POSTEMERGENCE, Rate 50 g/ha): 6
- Plant response rating, Corn (corn; POSTEMERGENCE, Rate 200 g/ha): 7
- Plant response rating, Corn (corn; PREEMERGENCE, Rate 50 g/ha): 0
- Plant response rating, Corn (corn; Rate 200 g/ha, PREEMERGENCE): 6
- Plant response rating, Brdlf Sgnlgrass (broadleaf signalgrass; POSTEMERGENCE, Rate 125 g/ha): 0
- Plant response rating, Brdlf Sgnlgrass (broadleaf signalgrass; POSTEMERGENCE, Rate 250 g/ha): 0
- Plant response rating, Brdlf Sgnlgrass (broadleaf signalgrass; PREEMERGENCE, Rate 125 g/ha): 0
- Plant response rating, Brdlf Sgnlgrass (broadleaf signalgrass; PREEMERGENCE, Rate 250 g/ha): 0
- Plant response rating Lambsquarters (lambsquarters; 62 g/ha): 100
- Plant response rating Lambsquarters (lambsquarters; 250 g/ha): 100
- Plant response rating (0 to 100), Lambsquarters (lambsquarters; Rate 4 g/ha): 30
- Plant response rating (0 to 100), Lambsquarters (lambsquarters; Rate 16 g/ha): 60
- Plant response rating, Rape (rape; POSTEMERGENCE, Rate 50 g/ha): 8
- Plant response rating, Rape (rape; PREEMERGENCE, Rate 50 g/ha): 8
- Plant response rating, Rape (rape; Rate 200 g/ha, POSTEMERGENCE): 10
- Plant response rating, Rape (rape; Rate 200 g/ha, PREEMERGENCE): 10
- Plant response rating (0 to 10 scale), Crabgrass (crabgrass; POSTEMERGENCE, Rate 50 g/ha): 4
- Plant response rating, Crabgrass (crabgrass; POSTEMERGENCE, Rate 200 g/ha): 5
- Plant response rating, Crabgrass (crabgrass; PREEMERGENCE, Rate 50 g/ha): 8
- Plant response rating, Crabgrass (crabgrass; Rate 200 g/ha, PREEMERGENCE): 9
- Plant response rating, Morningglory (morningglory [1]; 62 g/ha): 80
- Plant response rating, Morningglory (morningglory [1]; 250 g/ha): 100
- Plant response rating (0 to 100), Morningglory (morningglory [1]; Rate 4 g/ha): 70
- Plant response rating (0 to 100), Morningglory (morningglory [1]; Rate 16 g/ha): 80
- Plant response rating, Soybean (soybean; 62 g/ha): 60
- Plant response rating, Soybean (soybean; 250 g/ha): 100
- Plant response rating (0 to 100), Soybean (soybean; Rate 4 g/ha): 10
- Plant response rating (0 to 100), Soybean (soybean; Rate 16 g/ha): 50
- Plant response rating (0 to 10 scale), Barnyardgrass (barnyardgrass; POSTEMERGENCE, Rate 50 g/ha): 8
- Plant response rating, Barnyardgrass (barnyardgrass; POSTEMERGENCE, Rate 200 g/ha): 10
- Plant response rating, Barnyardgrass (barnyardgrass; PREEMERGENCE, Rate 50 g/ha): 4
- Plant response rating, Barnyardgrass (barnyardgrass; Rate 200 g/ha, PREEMERGENCE): 8
- Plant response rating (0 to 10 scale), Cheatgrass (cheatgrass; POSTEMERGENCE, Rate 50 g/ha): 4
- Plant response rating, Cheatgrass (cheatgrass; POSTEMERGENCE, Rate 200 g/ha): 8
- Plant response rating, Cheatgrass (cheatgrass; PREEMERGENCE, Rate 50 g/ha): 5
- Plant response rating, Cheatgrass (cheatgrass; Rate 200 g/ha, PREEMERGENCE): 8
- Plant response rating, Chickweed (chickweed; POSTEMERGENCE, Rate 200 g/ha): 8
- Plant response rating, Chickweed (chickweed; PREEMERGENCE, Rate 50 g/ha): 3
- Plant response rating, Chickweed (chickweed; Rate 200 g/ha, PREEMERGENCE): 7
- Plant response rating Barley Igri (barley; 62 g/ha): 60
- Plant response rating Barley Igri (barley; 250 g/ha): 90
- Plant response rating (0 to 100), Barley Igri (barley; Rate 4 g/ha): 20
- Plant response rating (0 to 100), Barley Igri (barley; Rate 16 g/ha): 40
- Plant response rating, Velvetleaf (velvetleaf; POSTEMERGENCE, Rate 50 g/ha): 8
- Plant response rating, Velvetleaf (velvetleaf; PREEMERGENCE, Rate 50 g/ha): 10
- Plant response rating, Velvetleaf (velvetleaf; Rate 200 g/ha, POSTEMERGENCE): 10
- Plant response rating, Velvetleaf (velvetleaf; Rate 200 g/ha, PREEMERGENCE): 10
- Plant response rating, Giant foxtail (giant foxtail; POSTEMERGENCE, Rate 50 g/ha): 3
- Plant response rating, Giant foxtail (giant foxtail; PREEMERGENCE, Rate 50 g/ha): 8
- Plant response rating, Giant foxtail (giant foxtail; Rate 200 g/ha, POSTEMERGENCE): 6
- Plant response rating, Giant foxtail (giant foxtail; Rate 200 g/ha, PREEMERGENCE): 9
- Plant response rating, Morningglory (morningglory [2]; POSTEMERGENCE, Rate 50 g/ha): 8
- Plant response rating, Morningglory (morningglory [2]; PREEMERGENCE, Rate 50 g/ha): 2
- Plant response rating, Morningglory (morningglory [2]; Rate 200 g/ha, POSTEMERGENCE): 10
- Plant response rating, Morningglory (morningglory [2]; Rate 200 g/ha, PREEMERGENCE): 5

SMILES: CC(C)COc1cc(-c2nn3c(c2Cl)CCCC3)c(F)cc1Cl [Compound 30]
- Plant response rating (0 to 10 scale), Corn (corn; POSTEMERGENCE, Rate 50 g/ha): 4
- Plant response rating, Corn (corn; POSTEMERGENCE, Rate 200 g/ha): 4
- Plant response rating, Corn (corn; PREEMERGENCE, Rate 50 g/ha): 0
- Plant response rating, Corn (corn; Rate 200 g/ha, PREEMERGENCE): 1
- Plant response rating, Brdlf Sgnlgrass (broadleaf signalgrass; POSTEMERGENCE, Rate 125 g/ha): 0
- Plant response rating, Brdlf Sgnlgrass (broadleaf signalgrass; POSTEMERGENCE, Rate 250 g/ha): 0
- Plant response rating, Brdlf Sgnlgrass (broadleaf signalgrass; PREEMERGENCE, Rate 125 g/ha): 0
- Plant response rating, Brdlf Sgnlgrass (broadleaf signalgrass; PREEMERGENCE, Rate 250 g/ha): 0
- Plant response rating Lambsquarters (lambsquarters; 62 g/ha): 90
- Plant response rating Lambsquarters (lambsquarters; 250 g/ha): 100
- Plant response rating (0 to 100), Lambsquarters (lambsquarters; Rate 4 g/ha): 50
- Plant response rating (0 to 100), Lambsquarters (lambsquarters; Rate 16 g/ha): 70
- Plant response rating, Rape (rape; POSTEMERGENCE, Rate 50 g/ha): 5
- Plant response rating, Rape (rape; PREEMERGENCE, Rate 50 g/ha): 0
- Plant response rating, Rape (rape; Rate 200 g/ha, POSTEMERGENCE): 9
- Plant response rating, Rape (rape; Rate 200 g/ha, PREEMERGENCE): 3
- Plant response rating (0 to 10 scale), Crabgrass (crabgrass; POSTEMERGENCE, Rate 50 g/ha): 3
- Plant response rating, Crabgrass (crabgrass; POSTEMERGENCE, Rate 200 g/ha): 2
- Plant response rating, Crabgrass (crabgrass; PREEMERGENCE, Rate 50 g/ha): 6
- Plant response rating, Crabgrass (crabgrass; Rate 200 g/ha, PREEMERGENCE): 9
- Plant response rating, Morningglory (morningglory [1]; 62 g/ha): 80
- Plant response rating, Morningglory (morningglory [1]; 250 g/ha): 90
- Plant response rating (0 to 100), Morningglory (morningglory [1]; Rate 4 g/ha): 30
- Plant response rating (0 to 100), Morningglory (morningglory [1]; Rate 16 g/ha): 50
- Plant response rating, Soybean (soybean; 62 g/ha): 50
- Plant response rating, Soybean (soybean; 250 g/ha): 50
- Plant response rating (0 to 100), Soybean (soybean; Rate 4 g/ha): 0
- Plant response rating (0 to 100), Soybean (soybean; Rate 16 g/ha): 20
- Plant response rating (0 to 10 scale), Barnyardgrass (barnyardgrass; POSTEMERGENCE, Rate 50 g/ha): 6
- Plant response rating, Barnyardgrass (barnyardgrass; POSTEMERGENCE, Rate 200 g/ha): 10
- Plant response rating, Barnyardgrass (barnyardgrass; PREEMERGENCE, Rate 50 g/ha): 2
- Plant response rating, Barnyardgrass (barnyardgrass; Rate 200 g/ha, PREEMERGENCE): 6
- Plant response rating (0 to 10 scale), Cheatgrass (cheatgrass; POSTEMERGENCE, Rate 50 g/ha): 6
- Plant response rating, Cheatgrass (cheatgrass; POSTEMERGENCE, Rate 200 g/ha): 7
- Plant response rating, Cheatgrass (cheatgrass; PREEMERGENCE, Rate 50 g/ha): 0
- Plant response rating, Cheatgrass (cheatgrass; Rate 200 g/ha, PREEMERGENCE): 4
- Plant response rating (0 to 10 scale), Chickweed (chickweed; POSTEMERGENCE, Rate 50 g/ha): 5
- Plant response rating, Chickweed (chickweed; POSTEMERGENCE, Rate 200 g/ha): 8
- Plant response rating, Chickweed (chickweed; PREEMERGENCE, Rate 50 g/ha): 0
- Plant response rating, Chickweed (chickweed; Rate 200 g/ha, PREEMERGENCE): 3
- Plant response rating Barley Igri (barley; 62 g/ha): 50
- Plant response rating Barley Igri (barley; 250 g/ha): 70
- Plant response rating (0 to 100), Barley Igri (barley; Rate 4 g/ha): 30
- Plant response rating (0 to 100), Barley Igri (barley; Rate 16 g/ha): 30
- Plant response rating, Velvetleaf (velvetleaf; POSTEMERGENCE, Rate 50 g/ha): 7
- Plant response rating, Velvetleaf (velvetleaf; PREEMERGENCE, Rate 50 g/ha): 5
- Plant response rating, Velvetleaf (velvetleaf; Rate 200 g/ha, POSTEMERGENCE): 10
- Plant response rating, Velvetleaf (velvetleaf; Rate 200 g/ha, PREEMERGENCE): 10
- Plant response rating, Giant foxtail (giant foxtail; POSTEMERGENCE, Rate 50 g/ha): 4
- Plant response rating, Giant foxtail (giant foxtail; PREEMERGENCE, Rate 50 g/ha): 7
- Plant response rating, Giant foxtail (giant foxtail; Rate 200 g/ha, POSTEMERGENCE): 5
- Plant response rating, Giant foxtail (giant foxtail; Rate 200 g/ha, PREEMERGENCE): 8
- Plant response rating, Morningglory (morningglory [2]; POSTEMERGENCE, Rate 50 g/ha): 8
- Plant response rating, Morningglory (morningglory [2]; PREEMERGENCE, Rate 50 g/ha): 2
- Plant response rating, Morningglory (morningglory [2]; Rate 200 g/ha, POSTEMERGENCE): 9
- Plant response rating, Morningglory (morningglory [2]; Rate 200 g/ha, PREEMERGENCE): 5
